Experimental data as given in US4097599A, “Triazoles” (Commonwealth Scientific and Industrial Research Organization, priority 1973, dated 1978).
Converted amounts (≈) assume the structure as drawn. Where two headings read alike, the source gives them in different places.

What was measured:
[1] = tested on: Boophilus microplus larvae; assay: Acaricide testing: toxicity to Boophilus microplus larvae; format: in vivo, Boophilus microplus (cattle tick); settings: 7-14 day old larvae, packets, 24 hours
Protocol: (§1) The new compounds were examined in several biological tests. The acaricidal activity was measured against the larvae of the Australian cattle tick (Boophilus microplus). The specificity of interference of the designed compounds with mitochondrial oxidative processes was examined by the differential inhibition of growth of Saccharomyces cerevisiae with ethanol or glucose as substrates.
The determinations of mortalities were carried out in packets on 7-14 day old larvae of the cattle tick Boophilus microplus using the method described by Stone^1. Mortalities were counted 24 hours after the application of the compounds. The activities of DDT and BTS 27271 were also determined.

[2] = tested on: rat liver monoamine oxidase; assay: Inhibition of rat liver monoamine oxidase; format: biochemical; settings: for Relative inhibition of rat liver monoamine oxidase: relative to I50 value of BTS 27271 = 100
Excerpt: (§2) Other biochemical tests carried out with the compounds were the measurement of their effects on the uncoupling of oxidative phosphorylation and the inhibition of energy transfer in the mitochondrial respiration sequences. In the light of a known report on the action of certain acaricides as monoamine oxidase (MAO) inhibitors, the new structures were also examined in this test, and their activity compared to the reported MAO inhibition shown by the potent acaricide N-(2,4-dimethylphenyl)-N'-methyl formamidine (BTS 27271).
Purified intact rat liver mitochondria were disrupted by treating with triton X-100 (1% w/v) for 20 mins. at 0°-4°. The MAO activity was measured spectrophotometrically at 360 nm as described by Weissbach, H. et al. ^10. The activity of BTS 27271 was determined by this method and the enzyme inhibition for other compounds was expressed relative to its I50 value.

Tetranychus urticae = assay: Activity against the two-spotted spider mite on discs of dwarf bean leaf; format: in vivo; settings: read-out: LC50, Tetranychus urticae
Protocol: Compounds of the invention were tested for their activity against the two-spotted spider mite, Tetranychus urticae. In this test, discs of dwarf bean leaf were treated with varying known amounts of the test compound. On each disc, 15 mites were placed and the sample kept under cover. Mortalities were determined after 24 hours and compared with […] controls.

Saccharomyces cerevisiae = assay: Inhibition of the growth of Saccharomyces cerevisiae on two substrates; format: cell-based, Saccharomyces cerevisiae strain L410; settings: 24 hours
Protocol: as §1
Saccharamyces cerevisiae, strain L410, was grown aerobically at 28° in a salts medium containing 1% Difco yeast extract and 0.5% bacteriological peptone as described by Wallace, P. G. et al.^2 with either ethanol (1% w/v) or glucose (5% w/v) as carbon and energy sources. Cells were innoculated at a concentration of 10 μg of dry weight per ml and grown for 24 hours. Growth was measured as described by Clark-Walker et al.^3, and compared with control incubations.

yeast mitochondria = assay: Oxidative phosphorylation in yeast mitochondria (uncoupling, State 3 respiration); format: biochemical, yeast (Saccharomyces cerevisiae)
Excerpt: as §2
Yeast mitochondria were prepared as described by Watson, K. et al.^4. The effects of anti-metabolites on oxidative phosphorylation were determined in a polarograph cell at 30° in the medium described by Haslam, J. M. et al.^5. Substrates were either succinate (4.0 mM) or ethanol (0.3M). Other additions, where indicated, were Sigma ADP and 2:4-dinitrophenol (DNP).
(§3) State 3 and state 4 respiration rates were determined by the method of Chance, B. et al.^9. Percentage uncoupling in the presence of antimetabolities was calculated from the equation [formula] Percentage inhibition of coupled respiration was calculated from the equation [formula] Relative uncoupling and n-octylguanidine like effects are compared as the concentrations required to give 50% effects (I50).

[3] = tested on: oxidative phosphorylation in rat liver mitochondria; assay: Oxidative phosphorylation in rat liver mitochondria (uncoupling, State 3 respiration); format: biochemical; settings: for EC50: concentration for 50% effect, read-out: Uncoupling activity of oxidative phosphorylation in rat liver mitochondria, I50
Excerpt: as §2
Rat liver mitochondria were prepared by the method described by Hogeboon^6 in a medium containing 0.25 M sucrose; 10 mM tris-HCl (pH 7.40); 0.5 mM EDTA and finally suspended in the same medium plus bovine-serum albumin (2 mg/ml). Oxidative phosphorylation was measured polarographically at 30°, as described by Estabrook, R. W. et al.^7. The incubation medium contained 0.25 M sucrose; 10 mM tris-HCl (pH 7.4); 5 mM K2 HPO4 (pH 7.4); 0.5 mM EDTA and bovine-serum albumin (2 mg/ml). DNP was added and control tests were carried out using n-octyl guanidine ^8 and either pyruvate or succinate as substrates.
as §3

[4] = ethanol substrate, read-out: Inhibition of the growth of Saccharomyces cerevisiae, ethanol, I50
[5] = glucose substrate, read-out: Inhibition of the growth of Saccharomyces cerevisiae, glucose, I50

| Compound | LC50, toxicity to Boophilus microplus larvae [1] | Relative inhibition of rat liver monoamine oxidase [2] | IC50 (Saccharomyces cerevisiae; [4]) | also measured |
| --- | --- | --- | --- | --- |
| FC(F)(F)c1ncn(-c2ccccc2)n1 [Example 13, 1-phenyl-3-trifluoromethyl-1,2,4-triazole] | 2.75% | 400 |  | Inhibition of rat liver monoamine oxidase (result in words) [2]: potent inhibition; Inhibition of rat liver monoamine oxidase compared with BTS 27271 ([2]; times that determined for BTS 27271 in a similar test): four times |
| Cc1nnc(C(F)(F)F)n1-c1ccccc1 [Example 11, 3-Methyl-4-phenyl-5-trifluoromethyl-1,2,4-triazole] | 0.50% | 2 |  |  |
| CN=CNc1ccc(C)cc1C [BTS 27271, N-(2,4-dimethylphenyl)-N'-methyl formamidine, reference compound] | 0.2% | 100 |  |  |
| Cc1ccccc1-n1cnnc1C(F)(F)F [Example 4, 4-(2-methylphenyl)-3-trifluoromethyl-1,2,4-triazole] | 0.52% | 2.5 |  |  |
| Cc1ccc(-n2cnnc2C(F)(F)F)c(C)c1 [Example 9, 4-(2,4-Dimethylphenyl)-3-trifluoromethyl-1,2,4-triazole] | 1.55% |  |  |  |
| Clc1ccc(C(c2ccc(Cl)cc2)C(Cl)(Cl)Cl)cc1 [DDT, reference compound] | 0.78% |  |  | LC50 (Tetranychus urticae; 24 h): > 20000 µg/mL |
| FC(F)(F)c1nncn1-c1ccc(Cl)cc1 [Example 3, 4-(4-chlorophenyl)-3-trifluoromethyl-1,2,4-triazole] | 0.60% | 2 | 2500 µM |  |
| CC(C)(C)c1ccc(-n2cnnc2C(F)(F)F)cc1 [Example 8, 4-(4-t-butylphenyl)-3-trifluoromethyl-1,2,4-triazole] | 1.8% | 1 |  |  |
| FC(F)(F)c1nnc(-c2ccc(Cl)cc2)n1-c1ccc(Cl)cc1 [Example 12, 3,4-bis(4-chlorophenyl)-5-trifluoromethyl-1,2,4-triazole] | > 1% | 200 |  | Inhibition of rat liver monoamine oxidase (result in words) [2]: potent inhibition |
| FC(F)(F)c1n[nH]c(-c2ccc(Cl)cc2)n1 [20(d), 3(5)-(4-chlorophenyl)-5(3)-trifluoromethyl-1,2,4-triazole] | 0.45% | 27 | 30 µM | IC50 (Saccharomyces cerevisiae; [5]): 300 µM; Uncoupling activity in yeast mitochondrial preparations (result in words) (yeast mitochondria): high uncoupling activity; Inhibition of rat liver monoamine oxidase (result in words) [2]: potent inhibition; EC50 [3]: 12 µM; Uncoupling activity in rat liver mitochondrial preparations (result in words) [3]: high uncoupling activity |
| CCOc1ccc(-n2cnnc2C(F)(F)F)cc1 [Example 7, 4-(4-ethoxyphenyl)-3trifluoromethyl-1,2,4-triazole] | 0.61% | 2.5 |  | LC50 (Tetranychus urticae; discs of dwarf bean leaf, 24 hours): 1400 µg/mL (≈ 5.44 mM) |
| Cc1cc(Cl)ccc1-n1cnnc1C(F)(F)F [Example 10, 4-(4-Chloro-2-methylphenyl)-3-trifluoromethyl-1,2,4-triazole] | 0.87% |  |  |  |
| FC(F)(F)c1n[nH]c(-c2ccc(Cl)c(Cl)c2)n1 [20(e), 3(5)-(3,4-dichlorophenyl)-5(3)-trifluoromethyl-1,2,4-triazole] | 0.38% | 42 | 10 µM | IC50 (Saccharomyces cerevisiae; [5]): 300 µM; Uncoupling activity in yeast mitochondrial preparations (result in words) (yeast mitochondria): high uncoupling activity; Inhibition of rat liver monoamine oxidase (result in words) [2]: potent inhibition; EC50 [3]: 2.3 µM; Uncoupling activity in rat liver mitochondrial preparations (result in words) [3]: high uncoupling activity |
| COc1ccccc1-n1cnnc1C(F)(F)F [Example 6, 4-(2-methoxyphenyl)-3-trifluoromethyl-1,2,4-triazole] | 0.38% | 5 |  |  |
| CC(C)(C)c1ccccc1-n1cnnc1C(F)(F)F [Example 5, 4-(2-t-butylphenyl)-3-trifluoromethyl-1,2,4-triazole] | 2.16% | 0 | 100 µM | IC50 (yeast mitochondria; yeast mitochondria, read-out: Half-maximal effect on State 3 respiration by yeast mitochondria): 160 µM |
| FC(F)(F)c1n[nH]c(-c2ccccc2)n1 [20(c), 3(5)-phenyl-5(3)-trifluoromethyl-1,2,4-triazole] | 0.60% | 0 | 300 µM | IC50 (Saccharomyces cerevisiae; [5]): 1000 µM; Uncoupling activity in yeast mitochondrial preparations (result in words) (yeast mitochondria): high uncoupling activity; EC50 [3]: 80 µM; Uncoupling activity in rat liver mitochondrial preparations (result in words) [3]: high uncoupling activity |
| FC(F)(F)c1nc[nH]n1 [Example 16, 3-trifluoromethyl-1,2,4-triazole] | 0.50% | 0 |  |  |
| FC(F)(F)c1nncn1-c1ccccc1 [Example 1, 4-Phenyl-3-trifluoromethyl-1,2,4-triazole] | 0.62% | 0 | 2500 µM |  |
